Reference: US5589373A, “Thermostable alkaline metalloprotease produced by a hyphomonas and preparation thereof” (priority 1995, dated 1996)
“Also recorded” adds a separate entry of the source. Read-outs that look alike come from different tables or passages of the source.

How the values were obtained:
[1] = tested on: H. jannaschiana stationary phase cells; experiment: Repression of exoprotease synthesis in stationary phase cells in growth media (azocasein assay); type: cell-based, Hyphomonas jannaschiana VP3; conditions: for activity / activity at 100000 µM: Hyphomonas jannaschiana, read-out: Enzyme activity (%) in growth media
Method: (§1) Samples of the cell culture supernatants, the toluenized cells, and the cell lysates were each tested for protease activity using an azocasein assay, such as described by Long et al., J. Gen. Microbiol. 127:193-199 (1981). One unit of enzyme activity was considered equivalent to an increased absorbance of 0.1 units at a wavelength of 440 nm after a 30 minute incubation at 42° C.
The stationary phase cells were resuspended in a one-tenth volume of MB, then incubated for 30 minutes at 37° C. Exoprotease activity was determined at hourly intervals following introduction of single amino acids at a final concentrations of 0.1% (v/v) o The assay was conducted over a period of 3 hours.
In a similar manner, protease activity was determined following the introduction of 100 mM (NH4)2 SO4 (ammonium sulfate) or 1% casamino acids to the growth medium.

[2] = tested on: H. jannaschiana extracellular protease; experiment: Effect of amino acids, casamino acids or (NH4)2SO4 on cell-free protease suspension (azocasein assay); type: biochemical, Hyphomonas jannaschiana VP3; parameters: Enzyme activity (%) in cell free supernatant: concentration or dose not given beside the values; conditions: for Enzyme activity (%) in cell free supernatant: cell-free protease suspension, 10 minute incubation, same additions, control = 100
Method: as §1
In the alternative, after allowing protease synthesis and export to proceed for 2.5 hours, the cells were removed by centrifugation, and the supernatant was passed through a 0.22 μm filter. The cell-free protease suspension was then treated, as described above, with single amino acids, casamino acids, or (NH4)2 SO4. Then, enzyme activity was determined following a 10 minute incubation period.

[3] = tested on: H. jannaschiana exoprotease; experiment: Recovery of chemically inhibited protease activity by Zn2+ and Ca2+; type: biochemical, Hyphomonas jannaschiana VP3; conditions: for restoration of activity to EDTA-inactivated enzyme: 100 mM EDTA, ZnCl2 or CaCl2, 25° C.; for effect of additional ions on activity of the native protease: no inhibitor
Method: The ability of the divalent cations Zn^2+ and Ca^2+ to restore enzyme activity to inactivated exoprotease was examined by introducing either 5 mM ZnCl2 or 100 mM CaCl2 at a 1:1 molar ratio of ion to inhibitor to the preparations described in Example 4. Following incubation at 25° C. for 15 minutes, protease activity was assayed.

[4] = tested on: H. jannaschiana exoprotease; experiment: Chemical inhibition of protease activity in filtered culture supernatant; type: biochemical, Hyphomonas jannaschiana VP3; conditions: for exoprotease activity in additional assays, data not shown (in words): concentration not given; for protease activity after exposure to inhibitor (in words): 5 mM o-phenanthroline, 60 mM PMSF, 100 mM EDTA, 80 mM EGTA
Method: as §1
The effect of various protease inhibitors on the production of H. jannaschiana exoprotease was tested by measuring protease activity following the incubation of the cells with each inhibitor. Stationary phase cells, grown in MB, were pelleted and resuspended in fresh media at one-tenth of the original culture volume. The cell suspension was incubated at 37° C. for 2.5 hours to permit synthesis and export of exoprotease into the culture supernatant. Then the cells were removed by centrifugation and the supernatant was sterilized by filtration through a 0.22 μm filter.
Protease activity was measured after exposure to each inhibitor at 25° C. for 15 minutes. The inhibitors were added at the following final concentrations: 5 mM o-phenanthroline, 60 mM […] (PMSF), 10 mM and 25 mM p-chloromercuribenzoic acid (pCMB), 100 mM EDTA, 80 mM ethylene glycol bis(beta-amino-ethylether)N,N,N',N'-tetraacetic acid (EGTA).
Each bar represents treatment of the exoprotease with the following: 1=untreated exoprotease; 2=o-phenan-throline; 3=o-phenanthroline and ZnCl; 4=ZnCl; 5=EGTA; 6=EGTA and CaCl; 7=CaCl; 8=EDTA; 9=EDTA and ZnCl; 10=EDTA and CaCl; 11=pCMB (10 mM, final conc.); 12=pCMB (25 mM, final conc.); and 13=PMSF. The enzyme activity was expressed as a percentage of the activity measured in the untreated control.

[5] = tested on: H. jannaschiana stationary phase cells; experiment: Inhibition of protease export by quinacrine in non-proliferating stationary phase cells; type: cell-based; conditions: Hyphomonas jannaschiana; for activity at 25 µM: 0.025 mM quinacrine, read-out: Enzyme activity relative to untreated control
Method: (§2) Thus, protease export was examined in the presence of quinacrine, a signal peptidase inhibitor. Protease export in the presence of quinacrine was examined using two approaches. An actively growing culture of H. jannaschiana was monitored with respect to both optical density at 550 nm and extracellular enzyme activity in the presence of 0.025 mM quinacrine. In order to eliminate the effect of quinacrine on H. jannaschiana growth, cells were initially propagated to stationary phase, and subsequently maintained in the non-proliferating state by 10-fold concentration in fresh media which was supplemented with 0.025 mM quinacrine.

[6] = tested on: functional extracellular protease; experiment: Quinacrine on functional extracellular protease activity; type: biochemical, Hyphomonas jannaschiana
[7] = tested on: actively growing culture of H. jannaschiana; experiment: Quinacrine on an actively growing culture (optical density and extracellular enzyme activity); type: cell-based, Hyphomonas jannaschiana; conditions: 0.025 mM quinacrine
Method: as §2

[8] = Properties of the purified thermostable alkaline metalloprotease (pH and temperature optimum, pH stability, pI); parameters: species or system Hyphomonas jannaschiana
[9] = Thermal stability of H. jannaschiana exoprotease (azocasein assay); type: physicochemical, Hyphomonas jannaschiana; conditions: for enzyme activity remaining after incubation at 75° C. for 30 minutes: filtered stationary phase culture supernatant, pH 9
Method: Filtered supernatant containing Hyphomonas jannaschiana exoprotease was maintained at 75° C. and 100° C. for various periods of time. Then, the enzyme was allowed to recalibrate to 25° C., and subsequently assayed for protease activity using the azocasein assay.

[10] = stationary phase cells in one-tenth volume MB, 37° C., single amino acids 0.1% (v/v), 100 mM (NH4)2SO4 or 1% casamino acids, control = 100
[11] = stationary phase cells in one-tenth volume MB, 37° C., single amino acids 0.1% (v/v), control = 100
[12] = listed as alkaline exoprotease produced by H. jannaschiana

N.N.O=S(=O)(O)O [(NH4)2 SO4, ammonium sulfate]
reduction in the synthesis of the exoprotease ([1]; 100 mM (NH4)2SO4): approximately 50% | Enzyme activity (%) in growth media [1, 10]: 56% | Enzyme activity (%) in cell free supernatant [2]: 100% | extracellular enzyme activity in cell-free growth media (in words) ([2]; exposed to the added substance): no affect

[Ca+2].[Cl-].[Cl-] [Ca^2+, CaCl2]
restoration of activity to EGTA-inhibited exoprotease ([3]; 80 mM EGTA, CaCl2 at 1:1 ion to inhibitor, 25° C., 15 minutes): reversible; also recorded: restored | restoration of activity to EDTA-inactivated enzyme ([3]; 15 minutes): partially restored | effect of additional ions on activity of the native protease [3]: no detectable effect

CC(C)CC(NC(=O)C1OC1C(=O)O)C(=O)NCCCCNC(=N)N (centres unmarked) [E64]
exoprotease activity in additional assays, data not shown (in words) [4]: not affected

O=C(O)CN(CCN(CC(=O)O)CC(=O)O)CC(=O)O [EDTA, ethylenediaminetetra-acetic acid]
EDTA concentration necessary to inhibit enzyme activity [4]: greater than 10^-2 M | protease activity after exposure to inhibitor (in words) ([4]; 25° C., 15 minutes): inhibited

O=C(O)CN(CCOCCOCCN(CC(=O)O)CC(=O)O)CC(=O)O [EGTA, ethylene glycol bis(beta-amino-ethylether)N,N,N',N'-tetraacetic acid]
protease activity after exposure to inhibitor (in words) ([4]; 25° C., 15 minutes): totally inhibited

O=S(=O)(F)Cc1ccccc1 [PMSF, phenylmethyl sulfonamide fluoride]
protease activity after exposure to inhibitor (in words) ([4]; 25° C., 15 minutes): unaffected; also recorded: not affected

[Cl-].[Cl-].[Zn+2] [Zn^2+, ZnCl2]
restoration of activity to o-phenanthroline-inhibited exoprotease ([3]; 5 mM o-phenanthroline, 5 mM ZnCl2, 1:1 ion to inhibitor, 25° C., 15 minutes): reactivated; also recorded: restored | restoration of activity to EDTA-inactivated enzyme ([3]; 15 minutes): partially restored | effect of additional ions on activity of the native protease [3]: significantly increased

C[C@H](N)C(=O)O [alanine]
Enzyme activity (%) in cell free supernatant [2]: 56%

N[C@@H](CC(=O)O)C(=O)O [aspartic acid]
activity [1, 11]: 79% | Enzyme activity (%) in cell free supernatant [2]: 60%

N[C@@H](CCC(=O)O)C(=O)O [glutamic acid]
activity at 100000 µM [1]: 86% | Enzyme activity (%) in cell free supernatant [2]: 52%

NC(=O)CC[C@H](N)C(=O)O [glutamine]
Enzyme activity (%) in cell free supernatant [2]: 52%

NCC(=O)O [glycine]
activity at 100000 µM [1, 10]: 69% | Enzyme activity (%) in cell free supernatant [2]: 82%

N[C@@H](Cc1c[nH]cn1)C(=O)O [histidine]
activity [1, 11]: 87% | Enzyme activity (%) in cell free supernatant [2]: 83%

CC(C)C[C@H](N)C(=O)O [leucine]
Enzyme activity (%) in cell free supernatant [2]: 69%

OCCS [mercaptoethanol]
exoprotease activity in additional assays, data not shown (in words) [4]: abolished

c1cnc2c(c1)ccc1cccnc12 [o-phenanthroline]
protease activity after exposure to inhibitor (in words) ([4]; 25° C., 15 minutes): totally inhibited

O=C(O)c1cc[c]([Hg][Cl])cc1 [pCMB, p-chloromercuribenzoic acid]
protease activity after exposure to low concentration of pCMB (in words) ([4]; 10 mM pCMB, 25° C., 15 minutes): unaffected; also recorded: not affected | protease activity after exposure to high concentration of pCMB (in words) ([4]; 25 mM pCMB, 25° C., 15 minutes): reduced

O=C(O)[C@@H]1CCCN1 [proline]
activity at 100000 µM [1, 10]: 108% | Enzyme activity (%) in cell free supernatant [2]: 93%

CCN(CC)CCCC(C)Nc1c2ccc(Cl)cc2nc2ccc(OC)cc12 (centres unmarked) [quinacrine]
activity at 25 µM ([5]; 0.5 h, time 30 min): 100% | activity at 25 µM ([5]; 40 min, time 40 min): 33% | inhibition at 25 µM ([5]; 40 min, 40 minutes after the addition of quinacrine, read-out: reduction in exported enzyme): 67% | activity at 25 µM ([5]; 1 h, time 60 min): 50% | activity at 25 µM ([5]; 1.5 h, time 90 min): 78% | activity at 25 µM ([5]; 2 h, time 120 min): 82% | activity at 25 µM ([5]; 3 h, time 180 min): 90% | effect on functional extracellular protease activity (in words) [6]: no affect | cell density and exoprotease activity after an additional 6 hour growth period (in words) [7]: returned to normal levels | inhibition of growth at 25 µM ([7]; Hyphomonas jannaschiana, 7 h, seven hours after treatment, OD 550 nm, read-out: reduction of optical density of the culture vs untreated cells): 48% | inhibition at 25 µM ([7]; Hyphomonas jannaschiana, 7 h, seven hours after treatment, read-out: exoprotease activity diminished vs untreated cells): 73%

N[C@@H](CO)C(=O)O [serine]
activity [1, 11]: 79% | Enzyme activity (%) in cell free supernatant [2]: 64%

N[C@@H](Cc1c[nH]c2ccccc12)C(=O)O [tryptophan]
Enzyme activity (%) in cell free supernatant [2]: 56%

B1: H. jannaschiana exoprotease: extracellular thermostable alkaline metalloprotease, approximately 80,000 daltons, produced by Hyphomonas jannaschiana VP3 (protein)
chain: EICRIVMDGHCEKQGDAECHDDQQSARPADQRINQDVEQVDDQFEEQGPGRNVCGINVFGS
isoelectric point pI [8]: 4.8 | optimal temperature ([8]; reacted at pH 9): 45 °C | optimal pH ([8]; reaction temperature of about 60° to 65° C.): approximately 9.5 | activity remaining after boiling at 100° C. for 5 minutes [9]: at least 41% | decrease of exoprotease activity after incubation at 75° C. for 30 minutes ([9]; azocasein assay): about 40% | reduction of extracellular protease activity after 100° C. (boiling) for 5 minutes ([9]; filtered culture supernatant): 41% | enzyme activity remaining after incubation at 75° C. for 30 minutes [9]: at least 60% | enzyme activity remaining after incubation at 75° C. for 30 minutes [9, 12]: Over 60% | proteolytic activity after boiling for 5 minutes (in words) [9, 12]: failed to destroy | proteolytic activity after boiling for 5 minutes (in words) ([9]; listed as thermostable alkaline exoprotease): did not destroy
